Patent US7029886B1, “Enzymatic substrate, synthesis method and uses” (Bio Merieux, priority 1999, dated 2006)
Marks after values point to notes of the source that are not given here.

Legend:
[1] = tested on: E. cloacae (NCTC, 11936); assay: CBR-gal in Columbia agar (solid medium); type: cell-based; conditions: 2, 6, 10 and 20 mg/100 ml, 37° C. overnight
Description: (§1) The CBR-gal substrate is incorporated into a Columbia agar at the following concentrations: 2, 6, 10 and 20 mg/100 ml, and the medium thus prepared is distributed into dishes. Each dish is inoculated with the following organisms: E. coli (NCTC, 10418), K. pneumoniae (NCTC, 10896), P. rettgeri (NCTC, 7475), E. cloacae (NCTC, 11936), S. marcescens (NCTC, 10211) and S. typhimurium (NCTC, 74). IPTG is incorporated into all these media, at a concentration of 3 mg per 100 ml of Columbia agar. All the dishes are incubated at 37° C. overnight.

[2] = tested on: E. coli (NCTC, 10418); assay: CBR-gal in Columbia agar (solid medium); type: cell-based; conditions: 2, 6, 10 and 20 mg/100 ml, 37° C. overnight
Description: as §1

[3] = tested on: S. marcescens (NCTC, 10211); assay: CBR-gal in Columbia agar (solid medium); type: cell-based; conditions: 2, 6, 10 and 20 mg/100 ml, 37° C. overnight
Description: as §1

[4] = tested on: K. pneumoniae (NCTC, 10896); assay: CBR-gal in Columbia agar (solid medium); type: cell-based; conditions: 2, 6, 10 and 20 mg/100 ml, 37° C. overnight
Description: as §1

[5] = tested on: E. coli, K. pneumoniae, P. rettgeri, E. cloacae, S. marcescens and S. typhimurium; type: cell-based; conditions: Columbia agar, 37° C. overnight
Description: as §1

[6] = tested on: E. cloacae (NCTC, 11936); assay: CBR-gal in a liquid medium, pink coloration over time (Table V); type: cell-based; design: key: — signifies a lack of coloration, even after 24 hours
Description: (§2) The CBR-gal substrate is tested in a liquid medium, at various concentrations from 0.5 mg/ml to 0.0078 mg/ml. The liquid reaction medium into which the substrate is incorporated is composed of a phosphate buffer, pH 7.4, containing 0.5% of nutrient broth and 0.5% of NaCl. 30 microliters/ml of IPTG are added to the medium for all the substrate concentrations. The strains tested are E. coli (NCTC, 10418), K. pneumoniae (NCTC, 10896), P. rettgeri (NCTC, 7475), E. cloacae (NCTC, 11936), S. marcescens (NCTC, 10211) and S. typhimurium (NCTC, 74), with an inoculum of 0.5 McFarland.

[7] = tested on: E. coli (NCTC, 10418); assay: as above; type: cell-based; design: key: — signifies a lack of coloration, even after 24 hours
Description: as §2

[8] = tested on: S. typhimurium (NCTC, 74); assay: as above; type: cell-based; design: key: — signifies a lack of coloration, even after 24 hours
Description: as §2

[9] = tested on: S. marcescens (NCTC, 10211); assay: as above; type: cell-based; design: key: — signifies a lack of coloration, even after 24 hours
Description: as §2

[10] = tested on: P. rettgeri (NCTC, 7475); assay: as above; type: cell-based; design: key: — signifies a lack of coloration, even after 24 hours
Description: as §2

[11] = tested on: K. pneumoniae (NCTC, 10896); assay: as above; type: cell-based; design: key: — signifies a lack of coloration, even after 24 hours
Description: as §2

[12] = tested on: E. cloacae 061; assay: Influence of the incubation atmosphere on revelation of β-D-galactosidase (Table IV)
[13] = tested on: E. faecium 255; assay: as above
[14] = tested on: E. coli 115; assay: as above
[15] = tested on: E. coli 206; assay: as above
[16] = tested on: S. marcescens 042; assay: as above; conditions: 48 H

O=c1cc2oc3cc(OC4OC(CO)C(O)C(O)C4O)c(Cl)cc3nc-2c2ccccc12 [CBR-gal, 8-chloro-1,2-benzoresorufin-β-D-galactoside]
coloration of the bacterial colony [1]: pink coloration
coloration of the bacterial colony [2]: pink coloration
coloration of the bacterial colony [3]: pink coloration
coloration of the bacterial colony [4]: pink coloration
optimum concentration to obtain a clearly visible pink coloration without any background noise [5]: around 10 mg/100 ml
time until pink coloration ([6]; CBR-gal substrate 0.0078 mg/ml): —
time until pink coloration ([6]; CBR-gal substrate 0.0156 mg/ml): —
time until pink coloration ([6]; CBR-gal substrate 0.0313 mg/ml): 24 h
time until pink coloration ([6]; CBR-gal substrate 0.0625 mg/ml): 4 h
time until pink coloration ([6]; CBR-gal substrate 0.125 mg/ml): 4 h
time until pink coloration ([6]; CBR-gal substrate 0.25 mg/ml): 2 h
time until pink coloration ([6]; CBR-gal substrate 0.5 mg/ml): 2 h
time until pink coloration ([7]; CBR-gal substrate 0.0078 mg/ml): —
time until pink coloration ([7]; CBR-gal substrate 0.0156 mg/ml): —
time until pink coloration ([7]; CBR-gal substrate 0.0313 mg/ml): 24 h
time until pink coloration ([7]; CBR-gal substrate 0.0625 mg/ml): 4 h
time until pink coloration ([7]; CBR-gal substrate 0.125 mg/ml): 4 h
time until pink coloration ([7]; CBR-gal substrate 0.25 mg/ml): 2 h
time until pink coloration ([7]; CBR-gal substrate 0.5 mg/ml): 2* hours
time until pink coloration ([8]; CBR-gal substrate 0.0078 mg/ml): —
time until pink coloration ([8]; CBR-gal substrate 0.0156 mg/ml): —
time until pink coloration ([8]; CBR-gal substrate 0.0313 mg/ml): —
time until pink coloration ([8]; CBR-gal substrate 0.0625 mg/ml): —
time until pink coloration ([8]; CBR-gal substrate 0.125 mg/ml): —
time until pink coloration ([8]; CBR-gal substrate 0.25 mg/ml): —
time until pink coloration ([8]; CBR-gal substrate 0.5 mg/ml): —
time until pink coloration ([9]; CBR-gal substrate 0.0078 mg/ml): —
time until pink coloration ([9]; CBR-gal substrate 0.0156 mg/ml): —
time until pink coloration ([9]; CBR-gal substrate 0.0313 mg/ml): 24 h
time until pink coloration ([9]; CBR-gal substrate 0.0625 mg/ml): 24 h
time until pink coloration ([9]; CBR-gal substrate 0.125 mg/ml): 24 h
time until pink coloration ([9]; CBR-gal substrate 0.25 mg/ml): 24 h
time until pink coloration ([9]; CBR-gal substrate 0.5 mg/ml): 24 h
time until pink coloration ([10]; CBR-gal substrate 0.0078 mg/ml): —
time until pink coloration ([10]; CBR-gal substrate 0.0156 mg/ml): —
time until pink coloration ([10]; CBR-gal substrate 0.0313 mg/ml): —
time until pink coloration ([10]; CBR-gal substrate 0.0625 mg/ml): —
time until pink coloration ([10]; CBR-gal substrate 0.125 mg/ml): —
time until pink coloration ([10]; CBR-gal substrate 0.25 mg/ml): —
time until pink coloration ([10]; CBR-gal substrate 0.5 mg/ml): —
time until pink coloration ([11]; CBR-gal substrate 0.0078 mg/ml): —
time until pink coloration ([11]; CBR-gal substrate 0.0156 mg/ml): —
time until pink coloration ([11]; CBR-gal substrate 0.0313 mg/ml): 24 h
time until pink coloration ([11]; CBR-gal substrate 0.0625 mg/ml): 4 h
time until pink coloration ([11]; CBR-gal substrate 0.125 mg/ml): 4 h
time until pink coloration ([11]; CBR-gal substrate 0.25 mg/ml): 2 h
time until pink coloration ([11]; CBR-gal substrate 0.5 mg/ml): 2 h

OC[C@H]1O[C@@H](Oc2c[nH]c3ccc(Br)c(Cl)c23)[C@H](O)[C@@H](O)[C@H]1O [X-Gal, reference compound]
intensity of coloration (arbitrary scale based on a visual observation) ([12]; 24 H, AE (aerobiosis)): 2
intensity of coloration (arbitrary scale based on a visual observation) ([12]; 24 H, CO2): 2
intensity of coloration (arbitrary scale based on a visual observation) ([12]; 24 H, MAP (microaerophily)): 1
intensity of coloration (arbitrary scale based on a visual observation) ([12]; 48 H, AE (aerobiosis)): 2
intensity of coloration (arbitrary scale based on a visual observation) ([12]; 48 H, ANA (anaerobiosis)): 1
intensity of coloration (arbitrary scale based on a visual observation) ([12]; 48 H, CO2): 2
intensity of coloration (arbitrary scale based on a visual observation) ([12]; 48 H, MAP (microaerophily)): 1
intensity of coloration (arbitrary scale based on a visual observation) ([13]; 24 H, AE (aerobiosis)): 1
intensity of coloration (arbitrary scale based on a visual observation) ([13]; 48 H, AE (aerobiosis)): 3
intensity of coloration (arbitrary scale based on a visual observation) ([13]; 48 H, CO2): 1
intensity of coloration (arbitrary scale based on a visual observation) ([13]; 48 H, MAP (microaerophily)): 1
intensity of coloration (arbitrary scale based on a visual observation) ([14]; 24 H, AE (aerobiosis)): 3*
intensity of coloration (arbitrary scale based on a visual observation) ([14]; 24 H, CO2): 2
intensity of coloration (arbitrary scale based on a visual observation) ([14]; 24 H, MAP (microaerophily)): 2
intensity of coloration (arbitrary scale based on a visual observation) ([14]; 48 H, AE (aerobiosis)): 3
intensity of coloration (arbitrary scale based on a visual observation) ([14]; 48 H, ANA (anaerobiosis)): 1
intensity of coloration (arbitrary scale based on a visual observation) ([14]; 48 H, CO2): 2
intensity of coloration (arbitrary scale based on a visual observation) ([14]; 48 H, MAP (microaerophily)): 2
intensity of coloration (arbitrary scale based on a visual observation) ([15]; 24 H, AE (aerobiosis)): 3
intensity of coloration (arbitrary scale based on a visual observation) ([15]; 24 H, ANA (anaerobiosis)): 1
intensity of coloration (arbitrary scale based on a visual observation) ([15]; 24 H, CO2): 3
intensity of coloration (arbitrary scale based on a visual observation) ([15]; 24 H, MAP (microaerophily)): 1
intensity of coloration (arbitrary scale based on a visual observation) ([15]; 48 H, AE (aerobiosis)): 3
intensity of coloration (arbitrary scale based on a visual observation) ([15]; 48 H, ANA (anaerobiosis)): 1
intensity of coloration (arbitrary scale based on a visual observation) ([15]; 48 H, CO2): 3
intensity of coloration (arbitrary scale based on a visual observation) ([15]; 48 H, MAP (microaerophily)): 1
intensity of coloration (arbitrary scale based on a visual observation) ([16]; AE (aerobiosis)): 1
intensity of coloration (arbitrary scale based on a visual observation) ([16]; CO2): 2
intensity of coloration (arbitrary scale based on a visual observation) ([16]; MAP (microaerophily)): 1
